The subject of one series is NCI-H929 cells. Kind of series: Apoptosis assay (Annexin-V / PI staining). The format is cell-based, human. Conditions: 20 nM equivalence of DM1, 24 h, Annexin-V and PI.
Series [1] can be described thus: Maximum tolerated dose (MTD) study in healthy mice. The series is classed as in vivo. The conditions noted are these: healthy NOD-SCID mice. The procedure:
When mice were injected with free DM1 at a dose over 0.5 mg/kg twice on days 0 and 3, we observed that all animals lost over 15% of their body weight and were morbid before the end of the week (FIG. 5). […] We concluded that liposomal prodrug formulations made treatment with DM1 possible in comparison to free DM1, where its intense systemic toxicity made it a non-viable treatment option. With this approach of liposomal prodrug formulation, even the non-targeted formulations already achieved an improved therapeutic index for DM1.
Maximum Tolerated Dose (MTD) Study. […] Free drug (DM1) was administered according to the recommendations of the manufacturer. Briefly, Free drug treatments were prepared by dissolving in 10% DMSO and 90% saline containing (20% Hydroxypropyl-β-cyclodextrin as excipient) and then administered intravenously into mice.

The subject of the next series is NCI-H929 MM Cells. As to the kind of experiment: In vitro cytotoxicity assay (CCK-8). The format is cell-based, human. Conditions: NCI-H929 cell line. As for the experimental part: Next, we evaluated the efficacy of liposomal DM1-Prodrug formulations against MM cells in vitro. For this, NCI-H929 cells were incubated with NP[Prodrug], TNP[Prodrug], free DM1-Prodrug or free drug for 24 h, 48 h and 72 h, and cell viability was determined using cell counting kit-8 (CCK-8) reagent. […] The differences in the IC50 values between free drug and the nanoparticles is possibly attributed to the release kinetics of active DM1 from nanoparticles.
Cell Culture. NCI-H929 cells were purchased from ATCC (Rockville, MD). Cells were cultured in RPMI 1640 media (Corning, NY). The cell line was supplemented with 20% fetal bovine serum (FBS), 2 mM L-Glutamine (Gibco, CA), 100U/mL penicillin (Gibco, CA), 100 μg/mL streptomycin (Gibco) and 55 μM 2-mercaptoethanol.
Cytotoxicity Assays. 15×10^3 cells/well were plated 24 h prior to each experiment in a 96-well plate. The following day, cells were treated with respective cytotoxic agents at varying concentrations. Cytotoxicity was assessed at 24 h, 48 h and 72 h using Cell Counting Kit-8 Reagent via reading absorbance at 450 nm. Viability was normalized to wells containing untreated cells.

Protocol for NCI-H929 cells: NCI-H929 cells were incubated with 20 nM equivalence of DM1 concentration either in the form of one of the liposomal prodrug formulations, or the free drug for 24 h.
Apoptosis Assay. NCI-H929 cells were cultured in the presence of 20 nM of DM1 equivalent concentrations of NP[Prodrug], TNP[Prodrug], and free drug for 24 h. Cells were washed and stained using the Dead Cell Apoptosis Kit by following and optimizing the manufacturer's protocol. Briefly, cells were washed with cold PBS, resuspended in 1X binding buffer, followed by Annexin-V and PI staining for 30 min at room temperature. Staining was performed by adding 7 μL of Alexa Fluor® 488 Annexin-V and 8 μL of 100 μg/mL PI working solution to each 100 μL of cell suspensions. Cells in treatment groups and untreated control were stained with Annexin-V and PI. Fluorescent microscopy images were acquired by using an EVOS® FL Auto Imaging System.

`COc1cc2cc(c1Cl)N(C)C(=O)C[C@H](OC(=O)[C@H](C)N(C)C(=O)CCS)[C@]1(C)O[C@H]1[C@H](C)[C@@H]1C[C@@](O)(NC(=O)O1)[C@H](OC)/C=C/C=C(\C)C2` [free DM1, Mertansine]: the “induction of apoptosis of MM cells” value in the series with NCI-H929 cells is “induce apoptosis”. Further, the body weight loss entry in series [1] (dose over 0.5 mg/kg twice on days 0 and 3) was “over 15%”. Moreover, the “toxicity / side-effects in MTD study” value in series [1] (injections on days 0 and 3, equivalent DM1 doses (nanoparticles up to 4 mg/kg)) is “morbid”. Moreover, the values for the IC50 with NCI-H929 MM Cells (24 hours) and in the series with NCI-H929 MM Cells (72 hours) were 12 nM and 9 nM, respectively.
